Reference: patent publication US11987588B2, “Modulators of the beta-3 adrenergic receptor useful for the treatment or prevention of heart failure and disorders related thereto” (Arena Pharmaceuticals, Inc., priority 2017, dated 2024)

Each compound was assayed against Beta-3 Adrenergic Receptor (Homo sapiens (Human), UniProt P13945) (assay: Homogeneous Time-Resolved Fluorescence (HTRF) cAMP antagonist assay, IC50 determination). Settings: CHO-K1 cells stably expressing recombinant receptor, isoproterenol at EC90.
Sequence of Beta-3 Adrenergic Receptor (P13945 whole entry, species assumed): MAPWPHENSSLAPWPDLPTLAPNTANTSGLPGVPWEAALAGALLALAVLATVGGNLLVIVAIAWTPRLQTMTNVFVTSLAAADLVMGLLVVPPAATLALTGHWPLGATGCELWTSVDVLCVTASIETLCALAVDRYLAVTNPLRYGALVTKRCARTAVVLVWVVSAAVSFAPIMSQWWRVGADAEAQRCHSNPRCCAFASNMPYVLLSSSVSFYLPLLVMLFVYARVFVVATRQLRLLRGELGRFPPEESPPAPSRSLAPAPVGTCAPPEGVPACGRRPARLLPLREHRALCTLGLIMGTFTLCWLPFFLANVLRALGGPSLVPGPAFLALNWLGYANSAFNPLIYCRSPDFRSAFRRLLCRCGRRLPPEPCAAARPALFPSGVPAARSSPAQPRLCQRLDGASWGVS
Format: cell-based
In short: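 Antagonist mode: isoproterenol at its predetermined EC90 added after compound to recombinant CHO-K1 cells in IBMX-containing PBS, 1 h, room temperature. Compounds tested as 5-fold, 10-point dilutions, top final typically 10 or 100 μM. HTRF signal converted to cAMP via standard curve, giving IC50.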

`CN(C)S(=O)(=O)c1cccc(OC[C@@H](O)CNC2COC3(CCN(S(=O)(=O)c4ccc(CN)cc4)CC3)C2)c1` (stereo partly drawn) [Compound 290, 3-((2S)-3-(8-(4-(aminomethyl)phenylsulfonyl)-1-oxa-8-azaspiro[4.5]decan-3-ylamino)-2-hydroxypropoxy)-N,N-dimethylbenzenesulfonamide] and `CNS(=O)(=O)c1cccc(OC[C@@H](O)CNC2COC3(CCN(S(=O)(=O)c4ccc(CO)cc4)CC3)C2)c1` (stereo partly drawn) [Compound 392, 3-((2S)-2-hydroxy-3-(8-(4-(hydroxymethyl)phenylsulfonyl)-1-oxa-8-azaspiro[4.5]decan-3-ylamino)propoxy)-N-methylbenzenesulfonamide] are within 1.5-fold of each other in IC50: 175 nM for the first, 168 nM for the second.

Compared with `CNS(=O)(=O)c1cccc(OC[C@@H](O)CNC2COC3(CCN(S(=O)(=O)c4ccc(OC)c5c4CCCC5)CC3)C2)c1` (stereo partly drawn) [Compound 222, 3-((2S)-2-hydroxy-3-(8-(4-methoxy-5,6,7,8-tetrahydronaphthalen-1-ylsulfonyl)-1-oxa-8-azaspiro[4.5]decan-3-ylamino)propoxy)-N-methylbenzenesulfonamide], `CNS(=O)(=O)c1cccc(OC[C@@H](O)CNC2COC3(CCN(S(=O)(=O)c4cc(F)ccc4OC)CC3)C2)c1` (stereo partly drawn) [Compound 238, 3-((2S)-3-(8-(5-fluoro-2-methoxyphenylsulfonyl)-1-oxa-8-azaspiro[4.5]decan-3-ylamino)-2-hydroxypropoxy)-N-methylbenzenesulfonamide] is 2.8-fold lower in IC50: 109 nM for the first, 38.4 nM for the second.

First: CNS(=O)(=O)c1cccc(OC[C@@H](O)CNC2COC3(CCN(S(=O)(=O)c4ccc(OC)c(-c5ccc(CN)cc5)c4)CC3)C2)c1 (stereo partly drawn) [Compound 366, 3-((2S)-3-(8-(4′-(aminomethyl)-6-methoxybiphenyl-3-ylsulfonyl)-1-oxa-8-azaspiro[4.5]decan-3-ylamino)-2-hydroxypropoxy)-N-methylbenzenesulfonamide]
Second: CNS(=O)(=O)c1cccc(OC[C@@H](O)CN[C@@H]2COC3(CCN(S(=O)(=O)c4cccc(-c5ccc(CN)cc5)c4)CC3)C2)c1 [Compound 288, 3-((S)-3-((S)-8-(4′-(aminomethyl)biphenyl-3-ylsulfonyl)-1-oxa-8-azaspiro[4.5]decan-3-ylamino)-2-hydroxypropoxy)-N-methylbenzenesulfonamide]
The IC50 of the first is 2.1-fold higher: 27.5 nM for the first, 13.4 nM for the second. The second is the more potent here.

`CNS(=O)(=O)c1cccc(OC[C@@H](O)CN[C@H]2COC3(CCN(S(=O)(=O)c4cccc(-c5ccc(N)nc5)c4)CC3)C2)c1` [Compound 287, 3-((S)-3-((R)-8-(3-(6-aminopyridin-3-yl)phenylsulfonyl)-1-oxa-8-azaspiro[4.5]decan-3-ylamino)-2-hydroxypropoxy)-N-methylbenzenesulfonamide] and `CNS(=O)(=O)c1cccc(OC[C@@H](O)CNC2COC3(CCN(S(=O)(=O)c4cccc(-c5cccc(CO)c5)c4)CC3)C2)c1` (stereo partly drawn) [Compound 118, 3-((2S)-2-hydroxy-3-(8-(3′-(hydroxymethyl)biphenyl-3-ylsulfonyl)-1-oxa-8-azaspiro[4.5]decan-3-ylamino)propoxy)-N-methylbenzenesulfonamide] are within 1.5-fold of each other in IC50: 21.9 nM for the first, 24.1 nM for the second.

`CNS(=O)(=O)c1cccc(OC[C@@H](O)CNC2COC3(CCN(S(=O)(=O)c4cc(Cl)cc(Cl)c4)CC3)C2)c1` (stereo partly drawn) [Compound 138, 3-((2S)-3-(8-(3,5-dichlorophenylsulfonyl)-1-oxa-8-azaspiro[4.5]decan-3-ylamino)-2-hydroxypropoxy)-N-methylbenzenesulfonamide] and `CNS(=O)(=O)c1cccc(OC[C@@H](O)CNC2COC3(CCN(S(=O)(=O)c4cc(Cl)ccc4Cl)CC3)C2)c1` (stereo partly drawn) [Compound 140, 3-((2S)-3-(8-(2,5-dichlorophenylsulfonyl)-1-oxa-8-azaspiro[4.5]decan-3-ylamino)-2-hydroxypropoxy)-N-methylbenzenesulfonamide] are within 1.5-fold of each other in IC50: 14.2 nM for the first, 11.3 nM for the second.

Going from `CNS(=O)(=O)c1cccc(OC[C@@H](O)CN[C@H]2COC3(CCN(S(=O)(=O)c4cnc5[nH]cc(Cl)c5c4)CC3)C2)c1` [Compound 510, 3-((S)-3-((R)-8-(3-chloro-1H-pyrrolo[2,3-b]pyridin-5-ylsulfonyl)-1-oxa-8-azaspiro[4.5]decan-3-ylamino)-2-hydroxypropoxy)-N-methylbenzenesulfonamide] to `CNS(=O)(=O)c1cccc(OC[C@@H](O)CNC2COC3(CCN(S(=O)(=O)c4ccc(C#N)c(Cl)c4)CC3)C2)c1` (stereo partly drawn) [Compound 239, 3-((2S)-3-(8-(3-chloro-4-cyanophenylsulfonyl)-1-oxa-8-azaspiro[4.5]decan-3-ylamino)-2-hydroxypropoxy)-N-methylbenzenesulfonamide], the IC50 rises from 4.89 nM to 22.3 nM (4.6-fold). The first is the more potent here.

Going from `CNS(=O)(=O)c1cccc(OC[C@@H](O)CNC2COC3(CCN(S(=O)(=O)c4ccc(Cl)cc4)CC3)C2)c1` (stereo partly drawn) [Compound 17, 3-((2S)-3-(8-(4-chlorophenylsulfonyl)-1-oxa-8-azaspiro[4.5]decan-3-ylamino)-2-hydroxypropoxy)-N-methylbenzenesulfonamide] to `CNS(=O)(=O)c1cccc(OC[C@@H](O)CNC2COC3(CCN(S(=O)(=O)c4ccccc4)CC3)C2)c1` (stereo partly drawn) [Compound 14, 3-((2S)-2-hydroxy-3-(8-(phenylsulfonyl)-1-oxa-8-azaspiro[4.5]decan-3-ylamino)propoxy)-N-methylbenzenesulfonamide], the IC50 rises from 15.3 nM to 30.1 nM (2-fold). The first is the more potent here.

Going from `O=S(=O)(NC1CC(F)(F)C1)c1cccc(OC[C@@H](O)CNC2COC3(CCN(S(=O)(=O)c4ccc5ccccc5c4)CC3)C2)c1` (stereo partly drawn) [Compound 89, N-(3,3-difluorocyclobutyl)-3-((2S)-2-hydroxy-3-(8-(naphthalen-2-ylsulfonyl)-1-oxa-8-azaspiro[4.5]decan-3-ylamino)propoxy)benzenesulfonamide] to `CNS(=O)(=O)c1cccc(OC[C@@H](O)CNC2COC3(CCN(S(=O)(=O)c4cccc(Br)c4)CC3)C2)c1` (stereo partly drawn) [Compound 20, 3-((2S)-3-(8-(3-bromophenylsulfonyl)-1-oxa-8-azaspiro[4.5]decan-3-ylamino)-2-hydroxypropoxy)-N-methylbenzenesulfonamide], the IC50 falls from 429 nM to 13.2 nM (32-fold).

Going from `CCn1cc(S(=O)(=O)N2CCC3(CC2)C[C@@H](NC[C@H](O)COc2cccc(S(N)(=O)=O)c2)CO3)c(=O)c2ccc(C)cc21` [Compound 557, 3-((S)-3-((R)-8-(1-ethyl-7-methyl-4-oxo-1,4-dihydroquinolin-3-ylsulfonyl)-1-oxa-8-azaspiro[4.5]decan-3-ylamino)-2-hydroxypropoxy)benzenesulfonamide] to `CNS(=O)(=O)c1cccc(OC[C@@H](O)CNC2COC3(CCN(S(=O)(=O)c4cc(C)ccc4F)CC3)C2)c1` (stereo partly drawn) [Compound 150, 3-((2S)-3-(8-(2-fluoro-5-methylphenylsulfonyl)-1-oxa-8-azaspiro[4.5]decan-3-ylamino)-2-hydroxypropoxy)-N-methylbenzenesulfonamide], the IC50 falls from 83.9 nM to 13.5 nM (6.2-fold). The second is the more potent here.

Going from `CNS(=O)(=O)c1cccc(OC[C@@H](O)CNC2COC3(CCN(S(=O)(=O)c4cccc(-c5cnn(CCO)c5)c4)CC3)C2)c1` (stereo partly drawn) [Compound 70, 3-((2S)-2-hydroxy-3-(8-(3-(1-(2-hydroxyethyl)-1H-pyrazol-4-yl)phenylsulfonyl)-1-oxa-8-azaspiro[4.5]decan-3-ylamino)propoxy)-N-methylbenzenesulfonamide] to `O=S(=O)(NCCO)c1cccc(OC[C@@H](O)CN[C@H]2COC3(CCN(S(=O)(=O)c4cnc5cc[nH]c5c4)CC3)C2)c1` [Compound 521, 3-((S)-3-((R)-8-(1H-pyrrolo[3,2-b]pyridin-6-ylsulfonyl)-1-oxa-8-azaspiro[4.5]decan-3-ylamino)-2-hydroxypropoxy)-N-(2-hydroxyethyl)benzenesulfonamide], the IC50 rises from 25.7 nM to 98.3 nM (3.8-fold).

Going from `CNS(=O)(=O)c1cccc(OC[C@@H](O)CN[C@H]2COC3(CCN(c4ccccn4)CC3)C2)c1` [Compound 561, 3-((S)-2-hydroxy-3-((R)-8-(pyridin-2-yl)-1-oxa-8-azaspiro[4.5]decan-3-ylamino)propoxy)-N-methylbenzenesulfonamide] to `CNS(=O)(=O)c1cccc(OC[C@@H](O)CN[C@H]2COC3(CCN(S(=O)(=O)c4c[nH]c5cccnc45)CC3)C2)c1` [Compound 529, 3-((S)-3-((R)-8-(1H-pyrrolo[3,2-b]pyridin-3-ylsulfonyl)-1-oxa-8-azaspiro[4.5]decan-3-ylamino)-2-hydroxypropoxy)-N-methylbenzenesulfonamide], the IC50 falls from 429 nM to 124 nM (3.5-fold).

`CNS(=O)(=O)c1cccc(OC[C@@H](O)CNC2COC3(CCN(S(=O)(=O)c4ccc(N5CCNCC5)nc4)CC3)C2)c1` (stereo partly drawn) [Compound 430, 3-((2S)-2-hydroxy-3-(8-(6-(piperazin-1-yl)pyridin-3-ylsulfonyl)-1-oxa-8-azaspiro[4.5]decan-3-ylamino)propoxy)-N-methylbenzenesulfonamide] and `CNS(=O)(=O)c1cccc(OC[C@@H](O)CNC2COC3(CCN(S(=O)(=O)C4CCCCC4)CC3)C2)c1` (stereo partly drawn) [Compound 125, 3-((2S)-3-(8-(cyclohexylsulfonyl)-1-oxa-8-azaspiro[4.5]decan-3-ylamino)-2-hydroxypropoxy)-N-methylbenzenesulfonamide] are within 1.5-fold of each other in IC50: 93.4 nM for the first, 78.1 nM for the second.

Compared with `CNS(=O)(=O)c1cccc(OC[C@@H](O)CNC2COC3(CCN(S(=O)(=O)c4cc5c(nc4Cl)OCCN5C)CC3)C2)c1` (stereo partly drawn) [Compound 400, 3-((2S)-3-(8-(6-chloro-1-methyl-2,3-dihydro-1H-pyrido[2,3-b][1,4]oxazin-7-ylsulfonyl)-1-oxa-8-azaspiro[4.5]decan-3-ylamino)-2-hydroxypropoxy)-N-methylbenzenesulfonamide], `CNS(=O)(=O)c1cccc(OC[C@@H](O)CNC2COC3(CCN(S(=O)(=O)c4cn(C)nc4C(F)(F)F)CC3)C2)c1` (stereo partly drawn) [Compound 152, 3-((2S)-2-hydroxy-3-(8-(1-methyl-3-(trifluoromethyl)-1H-pyrazol-4-ylsulfonyl)-1-oxa-8-azaspiro[4.5]decan-3-ylamino)propoxy)-N-methylbenzenesulfonamide] is 2.7-fold higher in IC50: 33.1 nM for the first, 90.7 nM for the second. The first is the more potent here.

Work on `COc1ccc(S(=O)(=O)N2CCC3(CC2)CC(NC[C@H](O)COc2cccc(S(=O)(=O)NCCCN(C)C)c2)CO3)cc1C` (stereo partly drawn) [Compound 308, N-(3-(dimethylamino)propyl)-3-((2S)-2-hydroxy-3-(8-(4-methoxy-3-methylphenylsulfonyl)-1-oxa-8-azaspiro[4.5]decan-3-ylamino)propoxy)benzenesulfonamide] yielded an IC50 of 1820 nM.
